Results published in patent US11541107B2, “Peptides and T cells for use in immunotherapeutic treatment of various cancers” (Immatics Biotechnologies GmbH, priority 2015, dated 2023).

What follows are substances tested on HLA-A*24 (assay: MHC binding assay, UV-ligand exchange with beta2m ELISA, HLA-A*24). Details: binding to HLA-A*24 ranged by peptide exchange yield (UV-ligand exchange, beta2m ELISA).
Design: species or system human
Excerpt: Candidate peptides for T cell based therapies according to the present invention were further tested for their MHC binding capacity (affinity). The individual peptide-MHC complexes were produced by UV-ligand exchange, where a UV-sensitive peptide is cleaved upon UV-irradiation, and exchanged with the peptide of interest as analyzed. Only peptide candidates that can effectively bind and stabilize the peptide-receptive MHC molecules prevent dissociation of the MHC complexes. To determine the yield of the exchange reaction, an ELISA was performed based on the detection of the light chain (ß2 m) of stabilized MHC complexes. The assay was performed as generally described in Rodenko et al. (Rodenko et al., 2006).
96 well MAXISorp plates (NUNC) were coated over night with 2 ug/ml streptavidin in PBS at room temperature, washed 4× and blocked for 1 h at 37° C. in 2% BSA containing blocking buffer. […] Peptide-MHC monomers of the UV-exchange reaction were diluted 100 fold in blocking buffer. Samples were incubated for 1 h at 37° C., washed four times, incubated with 2 ug/ml HRP conjugated anti-β2 m for 1h at 37° C., washed again and detected with TMB solution that is stopped with […]. Absorption was measured at 450 nm. Candidate peptides that show a high exchange yield (preferably higher than 50%, most preferred higher than 75%) are generally preferred for a generation and production of antibodies or fragments thereof, and/or T cell receptors or fragments thereof, as they show sufficient avidity to the MHC molecules and prevent dissociation of the MHC complexes.
In the case of “350 (KYGNFIDKL; listed as Homo sapiens) [compound 350]”, the Peptide exchange is reported as “+++ (50%-75% = +++)”. In the case of “221 (KYIGNLDLL; listed as Homo sapiens) [compound 221]”, the Peptide exchange is reported as “++++ (>=75% = ++++)”. “355 (IYVTGGHLF; listed as Homo sapiens) [compound 355]” was tested, and the Peptide exchange was “+++ (50%-75% = +++)”. For “319 (KYSDVKNLI; listed as Homo sapiens) [compound 319]”, the Peptide exchange was “++++ (>=75% = ++++)”. With “373 (GYISNGELF; listed as Homo sapiens) [compound 373]” the Peptide exchange was “+++ (50%-75% = +++)”. For “119 (VYRVYVTTF; listed as Homo sapiens) [compound 119]”, the Peptide exchange was “+++ (50%-75% = +++)”. For “270 (YYSQESKVLYL; listed as Homo sapiens) [compound 270]”, the Peptide exchange was “+++ (50%-75% = +++)”. In the case of “288 (VYPDTVALTF; listed as Homo sapiens) [compound 288]”, the Peptide exchange is reported as “++ (20%-49% = ++)”. “291 (YYLGSGRETF; listed as Homo sapiens) [compound 291]” was tested, and the Peptide exchange was “+++ (50%-75% = +++)”. In the case of “263 (RYILENHDF; listed as Homo sapiens) [compound 263]”, the Peptide exchange is reported as “+++ (50%-75% = +++)”. For “314 (RYFKGDYSI; listed as Homo sapiens) [compound 314]”, the Peptide exchange was “+++ (50%-75% = +++)”. With “369 (VYTHEVVTL; listed as Homo sapiens) [compound 369]” the Peptide exchange was “+++ (50%-75% = +++)”. “141 (SYNGHLTIWF; listed as Homo sapiens) [compound 141]” was tested, and the Peptide exchange was “+++ (50%-75% = +++)”. With “120 (GYIEHFSLW; listed as Homo sapiens) [compound 120]” the Peptide exchange was “++++ (>=75% = ++++)”. “99 (QYILAVPVL; listed as Homo sapiens) [compound 99]” was tested, and the Peptide exchange was “++++ (>=75% = ++++)”. “208 (TYLEKIDGF; listed as Homo sapiens) [compound 208]” was tested, and the Peptide exchange was “++++ (>=75% = ++++)”. For “252 (AFGQETNVPLNNF; listed as Homo sapiens) [compound 252]”, the Peptide exchange was “++++ (>=75% = ++++)”. With “347 (VYAEVNSL; listed as Homo sapiens) [compound 347]” the Peptide exchange was “+++ (50%-75% = +++)”. With “223 (TFITQSPLL; listed as Homo sapiens) [compound 223]” the Peptide exchange was “++++ (>=75% = ++++)”. With “386 (TFSDVEAHF; listed as Homo sapiens) [compound 386]” the Peptide exchange was “+++ (50%-75% = +++)”. In the case of “214 (KYLMELTLI; listed as Homo sapiens) [compound 214]”, the Peptide exchange is reported as “+++ (50%-75% = +++)”. With “341 (SYLTQHQRI; listed as Homo sapiens) [compound 341]” the Peptide exchange was “+++ (50%-75% = +++)”. With “342 (NYAFLHRTL; listed as Homo sapiens) [compound 342]” the Peptide exchange was “+++ (50%-75% = +++)”. “271 (RFLMKSYSF; listed as Homo sapiens) [compound 271]” was tested, and the Peptide exchange was “++++ (>=75% = ++++)”. For “255 (VYQKIILKF; listed as Homo sapiens) [compound 255]”, the Peptide exchange was “+++ (50%-75% = +++)”. “196 (GYIRGSWQF; listed as Homo sapiens) [compound 196]” was tested, and the Peptide exchange was “++++ (>=75% = ++++)”. In the case of “292 (FYPQIINTF; listed as Homo sapiens) [compound 292]”, the Peptide exchange is reported as “++++ (>=75% = ++++)”. For “201 (GYNPNRVFF; listed as Homo sapiens) [compound 201]”, the Peptide exchange was “+++ (50%-75% = +++)”. In the case of “282 (NYLVDPVTI; listed as Homo sapiens) [compound 282]”, the Peptide exchange is reported as “+++ (50%-75% = +++)”. With “170 (QYPFHVPLL; listed as Homo sapiens) [compound 170]” the Peptide exchange was “++++ (>=75% = ++++)”. With “185 (QYLVHVNDL; listed as Homo sapiens) [compound 185]” the Peptide exchange was “++++ (>=75% = ++++)”. In the case of “362 (VYNYAEQTL; listed as Homo sapiens) [compound 362]”, the Peptide exchange is reported as “++ (20%-49% = ++)”. With “296 (SYQVIFQHF; listed as Homo sapiens) [compound 296]” the Peptide exchange was “++++ (>=75% = ++++)”. In the case of “348 (IYLEHTESI; listed as Homo sapiens) [compound 348]”, the Peptide exchange is reported as “+++ (50%-75% = +++)”. In the case of “281 (NYSPGLVSLIL; listed as Homo sapiens) [compound 281]”, the Peptide exchange is reported as “+++ (50%-75% = +++)”. With “133 (KYLEDMKTYF; listed as Homo sapiens) [compound 133]” the Peptide exchange was “+++ (50%-75% = +++)”. For “102 (VYPFENFEF; listed as Homo sapiens) [compound 102]”, the Peptide exchange was “+++ (50%-75% = +++)”. “231 (AFADVSVKF; listed as Homo sapiens) [compound 231]” was tested, and the Peptide exchange was “++++ (>=75% = ++++)”. For “206 (NYLDVATFL; listed as Homo sapiens) [compound 206]”, the Peptide exchange was “++++ (>=75% = ++++)”. With “218 (LYSELNKWSF; listed as Homo sapiens) [compound 218]” the Peptide exchange was “+++ (50%-75% = +++)”. In the case of “114 (QYLDGTWSL; listed as Homo sapiens) [compound 114]”, the Peptide exchange is reported as “++++ (>=75% = ++++)”. In the case of “240 (YYFFVQEKI; listed as Homo sapiens) [compound 240]”, the Peptide exchange is reported as “+++ (50%-75% = +++)”. With “366 (QYLELAHSL; listed as Homo sapiens) [compound 366]” the Peptide exchange was “+++ (50%-75% = +++)”. In the case of “198 (DYVGFTLKI; listed as Homo sapiens) [compound 198]”, the Peptide exchange is reported as “++ (20%-49% = ++)”. For “152 (KFFDDLGDELLF; listed as Homo sapiens) [compound 152]”, the Peptide exchange was “++ (20%-49% = ++)”. “312 (SYTSVLSRL; listed as Homo sapiens) [compound 312]” was tested, and the Peptide exchange was “+++ (50%-75% = +++)”. For “249 (RYHPTTCTI; listed as Homo sapiens) [compound 249]”, the Peptide exchange was “++++ (>=75% = ++++)”. In the case of “154 (VYGVPTPHF; listed as Homo sapiens) [compound 154]”, the Peptide exchange is reported as “++++ (>=75% = ++++)”. With “293 (VYPHFSTTNLI; listed as Homo sapiens) [compound 293]” the Peptide exchange was “++++ (>=75% = ++++)”. In the case of “280 (TYNPNLQDKL; listed as Homo sapiens) [compound 280]”, the Peptide exchange is reported as “++++ (>=75% = ++++)”. With “387 (KYTEKLEEI; listed as Homo sapiens) [compound 387]” the Peptide exchange was “+++ (50%-75% = +++)”. With “247 (SFTKTSPNF; listed as Homo sapiens) [compound 247]” the Peptide exchange was “+++ (50%-75% = +++)”. In the case of “245 (LYPQLFVVL; listed as Homo sapiens) [compound 245]”, the Peptide exchange is reported as “+++ (50%-75% = +++)”. “211 (VFKSEGAYF; listed as Homo sapiens) [compound 211]” was tested, and the Peptide exchange was “++++ (>=75% = ++++)”. With “109 (LFITGGQFF; listed as Homo sapiens) [compound 109]” the Peptide exchange was “++++ (>=75% = ++++)”. In the case of “302 (LYLPVHYGF; listed as Homo sapiens) [compound 302]”, the Peptide exchange is reported as “+++ (50%-75% = +++)”. With “225 (TYTNTLERL; listed as Homo sapiens) [compound 225]” the Peptide exchange was “+++ (50%-75% = +++)”. “123 (VYTPVLEHL; listed as Homo sapiens) [compound 123]” was tested, and the Peptide exchange was “++ (20%-49% = ++)”. With “343 (NYLGGTSTI; listed as Homo sapiens) [compound 343]” the Peptide exchange was “+++ (50%-75% = +++)”. “116 (AYVIAVHLF; listed as Homo sapiens) [compound 116]” was tested, and the Peptide exchange was “++++ (>=75% = ++++)”. In the case of “127 (QYFTGNPLF; listed as Homo sapiens) [compound 127]”, the Peptide exchange is reported as “+++ (50%-75% = +++)”. In the case of “136 (IYPEWPVVFF; listed as Homo sapiens) [compound 136]”, the Peptide exchange is reported as “+++ (50%-75% = +++)”. “383 (RYKPGEPITF; listed as Homo sapiens) [compound 383]” was tested, and the Peptide exchange was “+++ (50%-75% = +++)”. “259 (YFIKSPPSQLF; listed as Homo sapiens) [compound 259]” was tested, and the Peptide exchange was “++ (20%-49% = ++)”. With “107 (KYFPYLVVI; listed as Homo sapiens) [compound 107]” the Peptide exchange was “+++ (50%-75% = +++)”. For “233 (QYLTAAALHNL; listed as Homo sapiens) [compound 233]”, the Peptide exchange was “+++ (50%-75% = +++)”. “364 (KYLNENQLSQL; listed as Homo sapiens) [compound 364]” was tested, and the Peptide exchange was “+++ (50%-75% = +++)”. With “368 (KYQNVKHNL; listed as Homo sapiens) [compound 368]” the Peptide exchange was “+++ (50%-75% = +++)”. In the case of “385 (QYIEELQKF; listed as Homo sapiens) [compound 385]”, the Peptide exchange is reported as “+++ (50%-75% = +++)”. In the case of “269 (QYPYLQAFF; listed as Homo sapiens) [compound 269]”, the Peptide exchange is reported as “+++ (50%-75% = +++)”. With “147 (LYLAFPLAF; listed as Homo sapiens) [compound 147]” the Peptide exchange was “+++ (50%-75% = +++)”. With “232 (YYLSDSPLL; listed as Homo sapiens) [compound 232]” the Peptide exchange was “+++ (50%-75% = +++)”. In the case of “303 (LYSVIKEDF; listed as Homo sapiens) [compound 303]”, the Peptide exchange is reported as “+++ (50%-75% = +++)”.
